Earlier results as cited in patent US9125936B2, “Ginger extract for the protection of stem cells” (Symrise AG, priority 2013, dated 2015).

Conditions: water (20° dH) at 20° C.; solid active agent

Q: Which solubility in water does the source give for `Nc1nc2c(ncn2COCCO)c(=O)[nH]1` [Acyclovir, 2-Amino-1,9-dihydro-9-((2-hydroxyethoxy)methyl)-6H-Purin-6-one] here?
A: Its solubility in water is “less than 5 g/L”.
